Test results as given in US20190151390A1, “PERILLA EXTRACT COMPOSITION” (INQPHARM GROUP SDN BHD, priority 2016, published 2019).

Tested on: HMC-1 cells
Test: Mast cell test: histamine release from IgE/anti-IgE stimulated HMC-1 cells, ELISA of supernatant
Assay type: cell-based
Settings: for Histamine reduction (%): compared to respective vehicle control; for Histamine (ng/ml) mean ± SD (n = 3): HMC-1 cells, supernatant ELISA
Protocol: Mast cell lines, i.e. HMC1 cells (provided by Dr Joseph H. Butterfield; Mayo Clinic, Rochester, Minn., USA), were cultured in Isocove's Modified Dulbecco's Medium (IMDM) containing 10% Fetal Bovine Seum (FBS), 2 mM L-glutamine, 50 μM 2-mercaptoethanol, 100 U/mL penicillin and 100 μg/mL streptomycin. Cells were maintained at 37° C. in 5% CO2 in a humidified atmosphere. Percentage of living cells was determined by trypan blue staining. A 1:10 dilution with 50 μl cell suspension and 450 μl trypan blue was prepared and the number of living and dead cells was counted in a hemocytometer. 10^6 living cells were transferred into safe-lock Eppendorf tubes. Cell suspensions were centrifuged (200 g, 5 min) and supernatant was discarded. The effect of perilla oil, sesame oil and a combination of perilla oil and sesame oil (1:1 ratio) in the vehicle Kolliphor ELP (polyoxyl-35 hydrogenated castor oil) was determined. The positive control Cromolyn in phosphate buffer saline (PBS), the vehicles PBS and ELP were also tested as controls. After adding 100 μl IgE (100 ng/ml in PBS or ELP) to the cell pellets, cells were incubated for 12 hours over night, at 37° C. Cells were then incubated for 2 hours, at 37° C. with two different concentrations of compounds, i.e. 250 μg/ml and 500 μg/ml. After centrifugation (200 g, 5 min) supernatant was discarded and cell pellet was again incubated for 1 hour, at 37° C. with 100 μl anti-IgE (1 μg/ml in PBS or ELP). For the final incubation time of 6 hours, at 37° C., 300 μl HMC1 media was added. Cells were again centrifuged (200 g, 5 min) and supernatant was collected and stored as 300 μl aliquots at −20° C. for ELISA measurements. Cell pellets were resuspended in 100 μl HMC1 media for determining cell viability. The concentration of histamine in the collected supernatant was determined by ELISA, using a kit obtained from IBL International according to the manufacturer's guidelines. Each sample was measured twice. Due to expected measuring limits, vehicle (PBS, ELP) treated samples were diluted 1:2. Statistical analysis was performed with GraphPad Prism (Version 5.01) software (GraphPad Software Inc., San Diego, Calif., USA) using the unpaired two-tailed Students t test. A P value of less than 0.05 was considered statistically significant.

Structure (SMILES): O=C(O)c1cc(=O)c2c(OCC(O)COc3cccc4oc(C(=O)O)cc(=O)c34)cccc2o1 [Cromolyn]
- Histamine reduction (%) compared to averaged histamine release of perilla oil and sesame oil (250 μg/ml): 8.41%
- Histamine reduction (%) (250 μg/ml): 57.61%
- Histamine reduction (%) compared to averaged histamine release of perilla oil and sesame oil (500 μg/ml): 6.75%
- Histamine reduction (%) (500 μg/ml): 55.28%
- Histamine (ng/ml) mean ± SD (n = 3) (250 μg/ml): 121.05 ± 0.73 ng/mL
- Histamine (ng/ml) mean ± SD (n = 3) (500 μg/ml): 127.70 ± 13.32 ng/mL
- Increase of percentage of histamine reduction compared to treatment with individual compounds (range over 250 and 500 μg/ml): 6.8-8.4%
